Measurements: patent US9840474B2, “Pyrimidine compounds and use as anti-cervical cancer thereof” (SICHUAN UNIVERSITY, priority 2014, dated 2017)
Like-named read-outs stand apart in the source and are kept apart here.

Columns and labels:
Type in all cases: cell-based
[1] = tested on: human cervical carcinoma Caski cells; assay: MTT cytotoxicity / inhibition test of cervical cancer Caski cells; settings: for OD: Caski cells, MTT; for IC50 value: cervical cancer Caski cells
Description: (§1) In order to investigate in vitro effects of CH01 and CH02 against cervical cancer and HPV16 viruses, in the experiment, the cytotoxicity of above compounds, together with their effects on HPV16 E6 and E7 mRNA, is investigated by culture with human cervical cancer cells (HPV16 positive). Structures of test compounds are shown as follows:
(§2) [Experimental Method] • 1. Cytotoxicity: MTT method was used, and Reed-Muench method was used to calculate indexes median toxic concentration (TC50) and maximum non-toxic concentation (TC0). • 2. HPV16 E6 and E7 mRNA: The cell culture was treated for 48 h at maximum non-toxic concentration, and then the culture was terminated. Total RNA in cells was extracted, and effects of test samples on HPV16 E6 and E7 mRNA were measured using Real-time PCR method.
[Experimental Result] • 1. Inhibition Test of Cervical Cancer Caski Cells

HPV16 E6 mRNA = assay: Real-time PCR of HPV16 E6 mRNA expression in Caski cells; settings: for effect on HPV E6 mRNA in Caski cells / inhibitory activity on E6 compared with positive control cidofovir / E6 One independent tests (inhibitory rate) / E6 Two independent tests (inhibitory rate): Caski cells; for E6 One independent tests (inhibitory rate) / E6 Two independent tests (inhibitory rate) / inhibition at 0.2 µg/mL: 48 h; for E6 One independent tests (inhibitory rate): test one; for E6 Two independent tests (inhibitory rate): test two; for inhibition at 0.2 µg/mL: Human papillomavirus 16, Ca-Ski
Description: as §1, §2
(§3) Effects of Samples on Expression of HPV16 E6 mRNA and HPV16 E7 mRNA in Caski Cells

HPV16 E7 mRNA = assay: Real-time PCR of HPV16 E7 mRNA expression in Caski cells; settings: for effect on HPV E7 mRNA in Caski cells / inhibitory activity on E7 compared with positive control cidofovir / E7 One independent tests (inhibitory rate) / E7 Two independent tests (inhibitory rate): Caski cells; for E7 One independent tests (inhibitory rate) / E7 Two independent tests (inhibitory rate) / inhibition at 0.2 µg/mL: 48 h; for E7 One independent tests (inhibitory rate): test one; for E7 Two independent tests (inhibitory rate): test two; for inhibition at 0.2 µg/mL: Human papillomavirus 16, Ca-Ski
Description: as §1, §2, §3

| Compound | OD ([1]; 0.097656 μg/ml) | OD ([1]; 0.195313 μg/ml) | OD ([1]; 0.390625 μg/ml) | OD ([1]; 0.78125 μg/ml) | OD ([1]; 1.5625 μg/ml) | OD ([1]; 3.125 μg/ml) | OD ([1]; 6.25 μg/ml) | OD ([1]; 12.5 μg/ml) | OD ([1]; 25 μg/ml) | OD ([1]; 50 μg/ml) | OD ([1]; 100 μg/ml) | OD ([1]; 200 μg/ml) | IC50 value [1] | effect on HPV E6 mRNA in Caski cells (HPV16 E6 mRNA) | inhibitory activity on E6 compared with positive control cidofovir (HPV16 E6 mRNA) | E6 One independent tests (inhibitory rate) (HPV16 E6 mRNA; 0.067 μg/ml) | E6 Two independent tests (inhibitory rate) (HPV16 E6 mRNA; 0.067 μg/ml) | E6 One independent tests (inhibitory rate) (HPV16 E6 mRNA; 0.2 μg/ml) | E6 Two independent tests (inhibitory rate) (HPV16 E6 mRNA; 0.2 μg/ml) | effect on HPV E7 mRNA in Caski cells (HPV16 E7 mRNA) | other results |
| --- | --- | --- | --- | --- | --- | --- | --- | --- | --- | --- | --- | --- | --- | --- | --- | --- | --- | --- | --- | --- | --- |
| 4-(2-methoxybenzylamino)-5-formaldoxime-6-chloropyrimidine [CH02] | 0.8357 | 0.78 | 0.4733 | 0.3837 | 0.313 | 0.2943 | 0.2727 | 0.2743 | 0.2803 | 0.3087 | 0.3757 | 0.5557 | about 0.4 μg/ml | showed inhibitory effects | better inhibitory activity than the positive control cidofovir | 0.461 | 0.481 | 0.599 | 0.549 | showed inhibitory effects | inhibitory activity on E7 compared with positive control cidofovir (HPV16 E7 mRNA): better inhibitory activity than the positive control cidofovir; E7 One independent tests (inhibitory rate) (HPV16 E7 mRNA; 0.067 μg/ml): 0.484; E7 Two independent tests (inhibitory rate) (HPV16 E7 mRNA; 0.067 μg/ml): 0.488; E7 One independent tests (inhibitory rate) (HPV16 E7 mRNA; 0.2 μg/ml): 0.516; E7 Two independent tests (inhibitory rate) (HPV16 E7 mRNA; 0.2 μg/ml): 0.526 |
| 4-(4-tert-butylbenzylamino)-5-formaldoxime-6-chloropyrimidine [CH01] | 0.8367 | 0.7847 | 0.6353 | 0.5667 | 0.488 | 0.4667 | 0.4117 | 0.3033 | 0.283 | 0.28 | 0.2967 | 0.4373 | about 1.5 μg/ml | showed inhibitory effects | better inhibitory activity than the positive control cidofovir | 0.489 | 0.494 | 0.577 | 0.553 | showed inhibitory effects | inhibitory activity on E7 compared with positive control cidofovir (HPV16 E7 mRNA): better inhibitory activity than the positive control cidofovir; E7 One independent tests (inhibitory rate) (HPV16 E7 mRNA; 0.067 μg/ml): 0.488; E7 Two independent tests (inhibitory rate) (HPV16 E7 mRNA; 0.067 μg/ml): 0.455; E7 One independent tests (inhibitory rate) (HPV16 E7 mRNA; 0.2 μg/ml): 0.484; E7 Two independent tests (inhibitory rate) (HPV16 E7 mRNA; 0.2 μg/ml): 0.449 |
| Nc1ccn(C[C@@H](CO)OCP(=O)(O)O)c(=O)n1 [cidofovir, reference compound] | – | – | – | – | – | – | – | – | – | – | – | – | – | – | – | – | – | – | – | – | inhibition at 0.2 µg/mL (HPV16 E6 mRNA; read-out: E6 One independent tests (inhibitory rate)): 32.6%; inhibition at 0.2 µg/mL (HPV16 E6 mRNA; read-out: E6 Two independent tests (inhibitory rate)): 33.6%; inhibition at 0.2 µg/mL (HPV16 E7 mRNA; read-out: E7 One independent tests (inhibitory rate)): 32.1%; inhibition at 0.2 µg/mL (HPV16 E7 mRNA; read-out: E7 Two independent tests (inhibitory rate)): 32.4% |
